SMILES strings stand for the structures. Read-outs that look alike come from different tables or passages of the source.

The assay has as its target T1, fusion protein from the PR-ligand-binding domain and a Gal4-transactivation domain (Homo sapiens, UniProt P06401).
T1 construct: expressed in transfected cells; host or cells: CHO K1 cells, stably transfected
Nature of the assay: Progestational action by transactivation test (CHO K1 reporter cells). Type of assay: cell-based. The following applies: for Emax: read-out: Progesterone receptor Agonism efficacy. The procedure:
4. Determination of Progestational Action by Means of Transactivation Tests:
The culture medium used for culture of the cells used for the assay was DMEM (Dulbecco's Modified Eagle Medium: […] glucose; PAA, #E15-009) with 10% FCS (Biochrom, S0115, batch #615B), 4 mM L-glutamine, 1% penicillin/streptomycin, 1 mg/ml G418 and 0.5 μg/ml puromycin.
Reporter cell lines (CHO K1 cells stably transfected with a fusion protein from the PR-ligand-binding domain and a Gal4-transactivation domain and a reporter construct, which contained luciferase under the control of a Gal4-responsive promoter) were seeded at a density of 4×10^4 cells per well in white, opaque tissue culture plates each with 96 wells (PerkinElmer, #P12-106-017) and kept in culture medium with 3% DCC-FCS (serum treated with activated charcoal to remove interfering components contained in the serum). The test compounds were added eight hours later, and the cells were incubated with the compounds for 16 hours. The tests were carried out in triplicate. At the end of incubation the medium containing the effector was removed and replaced with lysis buffer. After luciferase assay substrate (Promega, #E1501) had been added, the 96-well plates were then put in a microplate luminometer (Pherastar, BMG Labtech), and the luminescence was measured. The IC50 values were evaluated using software for calculating dose-effect relations.

[1] abbreviates: CHO K1 reporter cells, 16 hours incubation.
Setting [2] is: CHO K1 reporter cells, 16 hours incubation, read-out: Progesterone receptor Agonism EC50.

T1 sequence (P06401 679-913 limits assumed): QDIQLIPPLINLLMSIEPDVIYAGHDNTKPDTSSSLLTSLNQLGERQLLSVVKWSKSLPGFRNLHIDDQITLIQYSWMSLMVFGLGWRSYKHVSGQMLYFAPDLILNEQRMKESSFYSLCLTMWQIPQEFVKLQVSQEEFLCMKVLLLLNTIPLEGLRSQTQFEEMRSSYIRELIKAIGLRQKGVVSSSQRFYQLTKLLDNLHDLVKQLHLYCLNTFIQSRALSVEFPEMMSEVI
T1 sequence (P04386 1-147 partner limits assumed): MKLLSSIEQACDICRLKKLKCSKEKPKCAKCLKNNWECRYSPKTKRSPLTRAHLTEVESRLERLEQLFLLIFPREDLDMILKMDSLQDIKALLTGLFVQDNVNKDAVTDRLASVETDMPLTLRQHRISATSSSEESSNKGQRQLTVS

As for `CC[C@]12CC[C@H]3[C@@H]([C@H]4C[C@H]4C4=CC(=O)CC[C@@H]43)[C@@H]1[C@@H]1C[C@@H]1[C@@]21C=CC(=O)O1` [Example 1, 6β,7β;15β,16β-Bismethylene-17β-hydroxy-18-methyl-19-nor-17α-pregna-4,20(Z)-dien-3-one-21-carboxylic acid γ-lactone], the EC50 turned out to be 1.5 nM. In addition, the Emax (CHO-K1, 16 h) was 62.8%. For `CC[C@]12CC[C@H]3[C@@H](C=CC4=CC(=O)CC[C@@H]43)[C@@H]1[C@@H]1C[C@@H]1[C@@]21C=CC(=O)O1` [Example 3, 17β-Hydroxy-18-methyl-15β,16β-methylene-19-nor-17α-pregna-4,6,20(Z)-trien-3-one-21-carboxylic acid γ-lactone] the same measures were 1.4 nM and 34.2%. For `CC[C@]12CC[C@H]3[C@H]([C@@H]1[C@@H]1C[C@@H]1[C@@]21C=CC(=O)O1)[C@H](C)CC1=CC(=O)CC[C@@H]13` [Example 4A, 7α,18-Bismethyl-17β-hydroxy-15β,16β-methylene-19-nor-17α-pregna-4,20(Z)-dien-3-one-21-carboxylic acid γ-lactone] the same measures were 39 nM and 71.1%. In turn, `CC[C@@H]1CC2=CC(=O)CC[C@@H]2[C@H]2CC[C@@]3(CC)[C@@H]([C@@H]4C[C@@H]4[C@@]34C=CC(=O)O4)[C@H]12` [Example 5A, 17β-Hydroxy-7α-ethyl-18-methyl-15β,16β-methylene-19-nor-17α-pregna-4,20(Z)-dien-3-one-21-carboxylic acid γ-lactone] yielded an EC50 of 99 nM. Further, the Emax (CHO-K1, 16 h) is 35.7%. The corresponding values for `C=C[C@@H]1CC2=CC(=O)CC[C@@H]2[C@H]2CC[C@@]3(CC)[C@@H]([C@@H]4C[C@@H]4[C@@]34C=CC(=O)O4)[C@@H]21` [Example 6A, 17β-Hydroxy-7α-vinyl-18-methyl-15β,16β-methylene-19-nor-17α-pregna-4,20(Z)-dien-3-one-21-carboxylic acid γ-lactone] are 140 nM and 35.2%. Turning to `CC[C@]12CC[C@H]3[C@H]([C@@H]1[C@@H]1C[C@@H]1[C@@]21C=CC(=O)O1)[C@H](C1CC1)CC1=CC(=O)CC[C@@H]13` [Example 7A, 17β-Hydroxy-7α-cyclopropyl-18-methyl-15β,16β-methylene-19-nor-17α-pregna-4,20(Z)-dien-3-one-21-carboxylic acid γ-lactone], the Emax (CHO-K1, 16 h) is 5%. As for `CC[C@]12CC[C@H]3[C@@H]([C@H]4C[C@H]4C4=C(Cl)C(=O)CC[C@@H]43)[C@@H]1[C@@H]1C[C@@H]1[C@@]21C=CC(=O)O1` [Example 8, 6β,7β;15β,16β-Bismethylene-4-chloro-17β-hydroxy-18-methyl-19-nor-17α-pregna-4,20(Z)-dien-3-one-21-carboxylic acid γ-lactone], the Emax under setting [1] is 9.8%. For the compound `CC[C@]12CC[C@H]3[C@@H](CCC4=CC(=O)CC[C@@H]43)[C@@H]1[C@@H]1C[C@@H]1[C@@]21C=CC(=O)O1` [Example 9, 17β-Hydroxy-18-methyl-15β,16β-methylene-19-nor-17α-pregna-4,20(Z) dien-3-one-21-carboxylic acid γ-lactone], a half-maximal effect (EC50) was put at 1.6 nM. For the same compound, where the note is “CHO-K1, 16 h”, the Emax was 56%. Consider `CC[C@]12CC[C@H]3[C@@H](C[C@@H](CO)C4=CC(=O)CC[C@@H]43)[C@@H]1[C@@H]1C[C@@H]1[C@@]21C=CC(=O)O1` [Example 10, 17β-Hydroxy-6β-hydroxymethylene-18-methyl-15β,16β-methylene-19-nor-17α-pregna-4,20(Z)-dien-3-one-21-carboxylic acid γ-lactone], for which the “Progesterone receptor Agonism EC50” value under setting [1] is “inactive”. Compound `C[C@]12CC[C@H]3[C@@H](CCC4=CC(=O)CC[C@@H]43)[C@@H]1[C@H]1C[C@H]1[C@@]21C=CC(=O)O1` [Example 12, 17β-Hydroxy-15α,16α-methylene-19-nor-17α-pregna-4,20(Z)-dien-3-one-21-carboxylic acid γ-lactone] came in with an EC50 of 0.4 nM. Further, the Emax (CHO-K1, 16 h) is 75.5%. On to `C[C@]12CC[C@H]3[C@@H](C=CC4=CC(=O)CC[C@@H]43)[C@@H]1[C@H]1C[C@H]1[C@@]21C=CC(=O)O1` [Example 13, 17β-Hydroxy-15α,16α-methylene-19-nor-17α-pregna-4,6,20(Z)-trien-3-one-21-carboxylic acid γ-lactone], for which, under setting [2], the EC50 came out at 150 nM. Besides, the Emax under setting [1] came out at 37.1%. Take `C[C@@H]1CC2=CC(=O)CC[C@@H]2[C@H]2CC[C@@]3(C)[C@@H]([C@H]4C[C@H]4[C@@]34C=CC(=O)O4)[C@@H]21` [Example 14A, 17β-Hydroxy-7α-methyl-15α,16α-methylene-19-nor-17α-pregna-4,20(Z)-dien-3-one-21-carboxylic acid γ-lactone]: a half-maximal effect (EC50) was put at 16 nM. Moreover, the Emax (CHO-K1, 16 h) turned out to be 86.3%. For the compound `CC[C@@H]1CC2=CC(=O)CC[C@@H]2[C@H]2CC[C@@]3(C)[C@@H]([C@H]4C[C@H]4[C@@]34C=CC(=O)O4)[C@H]12` [Example 15A, 17β-Hydroxy-7α-ethyl-15α,16α-methylene-19-nor-17α-pregna-4,20(Z)-dien-3-one-21-carboxylic acid γ-lactone], a half-maximal response (EC50) required 92 nM. The Emax (CHO-K1, 16 h) amounted to 39.5%. The corresponding values for `C=C[C@@H]1CC2=CC(=O)CC[C@@H]2[C@H]2CC[C@@]3(C)[C@@H]([C@H]4C[C@H]4[C@@]34C=CC(=O)O4)[C@@H]21` [Example 16A, 17β-Hydroxy-7α-vinyl-15α,16α-methylene-19-nor-17α-pregna-4;20(Z)-dien-3-one-21-carboxylic acid γ-lactone] are 140 nM and 59.3%. For `C[C@]12CC[C@H]3[C@H]([C@@H]1[C@H]1C[C@H]1[C@@]21C=CC(=O)O1)[C@H](C1CC1)CC1=CC(=O)CC[C@@H]13` [Example 17A, 17β-Hydroxy-7α-cyclopropyl-15α,16α-methylene-19-nor-17α-pregna-4,20(Z)-dien-3-one-21-carboxylic acid γ-lactone] the same measures were 970 nM and 71.8%. The corresponding values for `C[C@]12CC[C@H]3[C@@H](CCC4=C(Cl)C(=O)CC[C@@H]43)[C@@H]1[C@H]1C[C@H]1[C@@]21C=CC(=O)O1` [Example 18, 4-Chloro-17β-hydroxy-15α,16α-methylene-19-nor-17α-pregna-4,20(Z)-dien-3-one-21-carboxylic acid γ-lactone] are 810 nM and 25.7%.

Turning to `C[C@]12CC[C@H]3[C@@H](C[C@@H](CO)C4=CC(=O)CC[C@@H]43)[C@@H]1[C@@H]1C[C@@H]1[C@@]21C=CC(=O)O1` [Example 21, 17β-Hydroxy-6β-hydroxymethylene-15β,16β-methylene-19-nor-17α-pregna-4,20(Z)-dien-3-one-21-carboxylic acid γ-lactone], the 50% effective concentration (EC50) under setting [2] came to 780 nM. Besides, the Emax under setting [1] came out at 21%. In the case of `C[C@]12CC[C@H]3[C@@H](CC4(CC4)C4=CC(=O)CC[C@@H]43)[C@@H]1[C@@H]1C[C@@H]1[C@@]21C=CC(=O)O1` [Example 22, 6,6-(1,2-Ethanediyl)-17β-hydroxy-15β,16β-methylene-19-nor-17α-pregna-4,20(Z)dien-3-one-21-carboxylic acid γ-lactone], a half-maximal effect (EC50) was put at 1.1 nM. Besides, where the note is “CHO-K1, 16 h”, the Emax amounted to 126%. For `C[C@@H]1CC2=CC(=O)CC[C@@H]2[C@H]2CC[C@@]3(C)[C@@H]([C@@H]4C[C@@H]4[C@@]34C=CC(=O)O4)[C@@H]21` [Example 23A, 17β-Hydroxy-7α-methyl-15β,16β-methylene-19-nor-17α-pregna-4,20(2)-dien-3-one-21-carboxylic acid γ-lactone] the same measures were 21 nM and 140%.

Consider `CC[C@@H]1CC2=CC(=O)CC[C@@H]2[C@H]2CC[C@@]3(C)[C@@H]([C@@H]4C[C@@H]4[C@@]34C=CC(=O)O4)[C@H]12` [Example 24A, 7α-Ethyl-17β-hydroxy-15β,16β-methylene-19-nor-17α-pregna-4,20(Z)-dien-3-one-21-carboxylic acid γ-lactone], for which a half-maximal response (EC50) required 140 nM. Where the note is “CHO-K1, 16 h”, the Emax worked out at 42.7%. The corresponding values for `C=C[C@@H]1CC2=CC(=O)CC[C@@H]2[C@H]2CC[C@@]3(C)[C@@H]([C@@H]4C[C@@H]4[C@@]34C=CC(=O)O4)[C@@H]21` [Example 25A, 17β-Hydroxy-15β,16β-methylene-7α-vinyl-19-nor-17α-pregna-4,20(Z)-dien-3-one-21-carboxylic acid γ-lactone] are 560 nM and 46.5%.

Usually EC50 stands for the concentration at which the effect is half-maximal.

For the origin of these results see patent publication US20110015162A1, “15,16-Methylene-17-hydroxy-19-nor-21-carboxylic acid-steroid Y-lactone derivative, use thereof and medicinal products containing the derivative” (Bayer Schering Pharma Aktiengesellschaft, priority 2007, published 2011).
